Measured values taken from US8921376B2, “Pyrrolopyridines useful as inhibitors of protein kinase” (Vertex Pharmaceuticals Incorporated, priority 2005, dated 2014).

Columns and labels:
Type in all cases: biochemical
[1] = target: JAK2 (Homo sapiens, UniProt O60674); experiment: JAK2 inhibition assay (as Example 3 with JAK-2 enzyme)
Summary of the method: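 In HEPES pH 7.4 buffer with 10 mM MgCl2, 1 mM DTT, 25 mM NaCl and 0.01% BSA, JAK2 enzyme phosphorylated poly(Glu)4Tyr (final 15 μM) using 33P-ATP (final 12 μM) for 20 min at room temperature (25 °C). Reactions stopped with TCA; incorporated 33P measured by scintillation after filtration.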

[2] = target: ROCK I (Homo sapiens, UniProt Q13464); experiment: ROCK-I inhibition assay (radioactive enzyme assay, MBP substrate)
Summary of the method: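 Human ROCK at 5 nM phosphorylated 27 μM myelin basic protein with 13 μM [γ-33P]ATP (final) in HEPES pH 7.5, MgCl2, NaCl, DTT and 1.5% DMSO. Reactions ran 2 h at room temperature before TCA quench and filter-plate scintillation counting. After background subtraction, data were fit to give Ki(app).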

[3] = target: T1, JAK3 (Homo sapiens, UniProt P52333); experiment: JAK3 inhibition assay (33P incorporation into poly(Glu)4Tyr)
T1 sequence (P52333 1-1124): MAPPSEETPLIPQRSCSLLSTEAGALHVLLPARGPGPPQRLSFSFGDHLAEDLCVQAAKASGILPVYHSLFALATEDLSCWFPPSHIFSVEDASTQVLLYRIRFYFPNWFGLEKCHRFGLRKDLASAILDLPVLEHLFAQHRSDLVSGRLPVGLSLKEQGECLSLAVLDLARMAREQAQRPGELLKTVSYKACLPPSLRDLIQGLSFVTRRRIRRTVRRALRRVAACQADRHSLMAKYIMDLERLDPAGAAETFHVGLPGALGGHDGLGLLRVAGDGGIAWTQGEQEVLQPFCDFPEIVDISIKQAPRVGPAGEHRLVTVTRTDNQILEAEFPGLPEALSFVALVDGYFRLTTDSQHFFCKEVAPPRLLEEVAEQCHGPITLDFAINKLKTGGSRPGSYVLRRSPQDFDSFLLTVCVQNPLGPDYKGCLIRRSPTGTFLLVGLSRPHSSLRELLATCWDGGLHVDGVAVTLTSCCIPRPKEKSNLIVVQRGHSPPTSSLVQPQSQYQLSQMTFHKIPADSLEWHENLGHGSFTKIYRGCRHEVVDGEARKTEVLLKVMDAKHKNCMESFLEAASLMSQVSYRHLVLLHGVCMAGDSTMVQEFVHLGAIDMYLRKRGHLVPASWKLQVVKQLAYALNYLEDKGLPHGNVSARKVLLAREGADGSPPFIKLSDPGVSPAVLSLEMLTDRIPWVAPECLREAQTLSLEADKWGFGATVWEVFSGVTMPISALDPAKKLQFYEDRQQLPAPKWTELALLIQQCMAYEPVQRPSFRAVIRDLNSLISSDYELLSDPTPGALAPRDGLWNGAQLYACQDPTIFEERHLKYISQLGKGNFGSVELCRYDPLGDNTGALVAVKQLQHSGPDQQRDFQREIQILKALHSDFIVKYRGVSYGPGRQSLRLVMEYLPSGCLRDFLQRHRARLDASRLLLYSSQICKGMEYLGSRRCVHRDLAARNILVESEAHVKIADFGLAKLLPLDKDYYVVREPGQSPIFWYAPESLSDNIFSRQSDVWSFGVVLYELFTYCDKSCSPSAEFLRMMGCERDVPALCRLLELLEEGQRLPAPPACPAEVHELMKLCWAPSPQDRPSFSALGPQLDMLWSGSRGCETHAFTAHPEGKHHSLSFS
Summary of the method: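 After TCA quench and filter harvest, scintillation counting of 33P measured phosphorylation of poly(Glu)4Tyr (1 μM) by 1 nM JAK3. The 20-min, 25° C. reaction contained 5 μM ATP (200 μCi/μmole) in pH 7.4 HEPES buffer with 10 mM MgCl2.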

[4] = Table 6, enzyme inhibition data (Ki)
[5] = enzyme inhibition, Ki(app), Table 5

ROCK I, sequence (Q13464 whole entry): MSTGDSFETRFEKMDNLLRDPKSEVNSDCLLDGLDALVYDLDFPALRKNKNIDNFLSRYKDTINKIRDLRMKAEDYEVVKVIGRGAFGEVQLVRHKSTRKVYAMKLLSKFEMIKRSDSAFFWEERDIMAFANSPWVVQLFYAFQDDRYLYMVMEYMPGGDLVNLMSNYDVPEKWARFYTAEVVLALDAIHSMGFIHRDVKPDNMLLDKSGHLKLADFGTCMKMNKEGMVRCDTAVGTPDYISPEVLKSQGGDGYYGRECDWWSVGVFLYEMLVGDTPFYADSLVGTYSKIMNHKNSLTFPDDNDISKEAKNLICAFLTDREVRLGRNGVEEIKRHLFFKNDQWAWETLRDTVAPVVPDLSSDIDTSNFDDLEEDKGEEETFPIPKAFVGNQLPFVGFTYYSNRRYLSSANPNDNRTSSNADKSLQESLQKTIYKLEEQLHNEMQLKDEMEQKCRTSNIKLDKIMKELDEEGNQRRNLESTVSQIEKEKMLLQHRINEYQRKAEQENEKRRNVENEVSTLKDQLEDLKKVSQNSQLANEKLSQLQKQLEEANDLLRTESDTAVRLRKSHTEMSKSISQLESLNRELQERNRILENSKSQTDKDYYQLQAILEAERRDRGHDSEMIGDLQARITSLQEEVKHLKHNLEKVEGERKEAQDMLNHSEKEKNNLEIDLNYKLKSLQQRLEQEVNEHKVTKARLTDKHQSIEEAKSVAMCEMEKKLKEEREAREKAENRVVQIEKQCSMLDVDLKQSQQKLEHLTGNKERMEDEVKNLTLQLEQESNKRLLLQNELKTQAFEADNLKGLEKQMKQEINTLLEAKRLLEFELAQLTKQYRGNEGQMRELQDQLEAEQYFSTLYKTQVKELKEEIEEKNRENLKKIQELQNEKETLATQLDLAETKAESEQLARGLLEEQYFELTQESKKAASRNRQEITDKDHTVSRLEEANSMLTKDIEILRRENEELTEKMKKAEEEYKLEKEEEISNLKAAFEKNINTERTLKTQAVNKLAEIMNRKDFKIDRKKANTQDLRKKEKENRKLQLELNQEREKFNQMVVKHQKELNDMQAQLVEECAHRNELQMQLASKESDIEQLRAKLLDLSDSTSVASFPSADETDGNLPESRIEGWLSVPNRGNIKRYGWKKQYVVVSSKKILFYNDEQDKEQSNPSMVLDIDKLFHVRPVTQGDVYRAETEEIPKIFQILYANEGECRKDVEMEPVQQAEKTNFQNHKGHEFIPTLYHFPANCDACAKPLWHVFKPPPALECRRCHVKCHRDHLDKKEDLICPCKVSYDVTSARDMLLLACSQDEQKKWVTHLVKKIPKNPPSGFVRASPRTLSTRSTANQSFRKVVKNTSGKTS
JAK2, sequence (O60674 whole entry): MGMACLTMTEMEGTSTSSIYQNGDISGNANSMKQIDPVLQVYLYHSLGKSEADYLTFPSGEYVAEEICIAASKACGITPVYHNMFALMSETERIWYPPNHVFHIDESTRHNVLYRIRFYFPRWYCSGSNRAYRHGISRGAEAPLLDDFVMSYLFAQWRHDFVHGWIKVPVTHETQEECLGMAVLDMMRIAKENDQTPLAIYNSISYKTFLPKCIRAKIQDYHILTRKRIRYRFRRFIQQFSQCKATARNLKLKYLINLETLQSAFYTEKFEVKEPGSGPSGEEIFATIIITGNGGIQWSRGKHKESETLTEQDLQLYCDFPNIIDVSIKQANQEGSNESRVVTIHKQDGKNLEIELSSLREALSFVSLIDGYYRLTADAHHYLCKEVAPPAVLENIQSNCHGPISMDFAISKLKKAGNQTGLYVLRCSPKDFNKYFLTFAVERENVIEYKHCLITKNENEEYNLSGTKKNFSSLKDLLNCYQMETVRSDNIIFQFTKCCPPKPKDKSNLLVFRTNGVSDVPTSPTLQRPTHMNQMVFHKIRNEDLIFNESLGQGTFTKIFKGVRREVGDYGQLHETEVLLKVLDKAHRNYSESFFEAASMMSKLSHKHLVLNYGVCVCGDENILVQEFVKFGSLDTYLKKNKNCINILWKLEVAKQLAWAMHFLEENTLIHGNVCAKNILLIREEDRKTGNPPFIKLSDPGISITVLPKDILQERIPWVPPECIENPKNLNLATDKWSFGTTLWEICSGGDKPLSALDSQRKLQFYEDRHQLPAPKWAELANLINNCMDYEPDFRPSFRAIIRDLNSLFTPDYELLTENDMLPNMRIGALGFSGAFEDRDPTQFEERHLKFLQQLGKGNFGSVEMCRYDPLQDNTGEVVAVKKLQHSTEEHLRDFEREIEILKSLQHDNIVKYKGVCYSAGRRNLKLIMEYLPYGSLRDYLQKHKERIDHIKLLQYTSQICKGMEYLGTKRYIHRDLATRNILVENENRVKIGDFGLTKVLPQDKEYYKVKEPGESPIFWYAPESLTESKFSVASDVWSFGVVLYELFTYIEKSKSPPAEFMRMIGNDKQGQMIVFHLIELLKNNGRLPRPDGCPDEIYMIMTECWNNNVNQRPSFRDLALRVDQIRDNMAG

SMILES	Ki [1, 4] [nM]	Ki [2, 4] [nM]	Ki [3, 4] [nM]	Ki ([1]; enzyme inhibition, Table 5) [nM]	Ki [2, 5] [nM]	Ki ([3]; enzyme inhibition, Table 5) [nM]
C=CCN(C(=O)c1cc(-c2c(F)cnc3[nH]ccc23)c[nH]1)C(C)c1ccccc1 (stereo not drawn) [compound 385]	< 500	500 to 5000	< 500	–	–	–
C=CCN(C(=O)c1csc(-c2ccnc3[nH]ccc23)n1)C1CCCC1 [compound 410]	< 500	< 500	< 500	–	–	–
Nc1ncccc1-c1ccnc2[nH]ccc12 [compound 195]	> 5000	> 4000	> 5000	–	–	–
O=C(c1cc(-c2ccnc3[nH]ccc23)c[nH]1)N1CCC(CO)CC1 [compound 363]	< 500	500 to 5000	500 to 5000	–	–	–
C=CCN(CC=C)C(=O)c1csc(-c2ccnc3[nH]ccc23)n1 [compound 401]	< 500	< 500	< 500	–	–	–
CCCN(CCC#N)C(=O)c1ccc(-c2ccnc3[nH]ccc23)s1 [compound 320]	< 500	< 500	< 500	–	–	–
O=C(NC1CC1)c1ccc(-c2ccnc3[nH]ccc23)cc1 [compound 270]	< 500	500 to 5000	500 to 5000	–	–	–
CCNC(=O)c1ccccc1-c1ccnc2[nH]ccc12 [compound 257]	> 5000	> 4000	> 5000	–	–	–
c1ccc2c(c1)Oc1c(cccc1-c1ccnc3[nH]ccc13)S2 [compound 246]	> 5000	> 4000	> 5000	–	–	–
Cc1ccc(-c2ccnc3[nH]ccc23)cc1C [compound 110, 4-(3,4-Dimethyl-phenyl)-1H-pyrrolo[2,3-b]pyridine]	–	–	–	< 500	< 500	< 500
Cc1ccc(-c2c(Cl)cnc3[nH]ccc23)s1 [compound 140]	< 500	500 to 5000	< 500	–	–	–
Cc1cc(C)c(-c2ccnc3[nH]ccc23)c(C)c1 [compound 242]	> 5000	> 4000	> 5000	–	–	–
CCc1ccccc1-c1ccnc2[nH]ccc12 [compound 231]	500 to 5000	500 to 5000	500 to 5000	–	–	–
CNC(=O)c1ccc(-c2ccnc3[nH]ccc23)cc1 [compound 272]	< 500	< 500	< 500	–	–	–
CCCN(CC1CC1)C(=O)c1cc(-c2c(F)cnc3[nH]ccc23)c[nH]1 [compound 392]	< 500	500 to 5000	< 500	–	–	–
COc1ccc(OC)c(-c2ccnc3[nH]ccc23)c1 [compound 221]	> 5000	500 to 5000	> 5000	–	–	–
O=C(c1csc(-c2ccnc3[nH]ccc23)n1)N1CCC(CO)CC1 [compound 411]	500 to 5000	500 to 5000	500 to 5000	–	–	–
CC(C)(Nc1nc(-c2ccnc3[nH]ccc23)nc2ccccc12)C(=O)NCC(F)(F)F [compound 132]	–	–	–	> 5000	500 to 5000	500 to 5000
CCC(CC)NC(=O)c1cc(-c2ccnc3[nH]ccc23)c[nH]1 [compound 284]	< 500	< 500	< 500	–	–	–
N#CCN(Cc1cccc(Cl)c1)C(=O)c1cc(-c2c(F)cnc3[nH]ccc23)c[nH]1 [compound 399]	< 500	< 500	< 500	–	–	–
CN(CCO)c1cccc(-c2c(Cl)cnc3[nH]ccc23)n1 [compound 77]	–	–	–	< 500	500 to 5000	< 500
O=C(CC(F)(F)F)N1CC=C(c2ccnc3[nH]ccc23)CC1 [compound 65]	–	–	–	< 500	< 500	500 to 5000
CN(C)c1cccc(-c2ccnc3[nH]ccc23)c1 [compound 31, Dimethyl-[3-(1H-pyrrolo[2,3-b]pyridin-4-yl)-phenyl]-amine]	–	–	–	< 500	< 500	< 500
O=C(O)c1cccc(-c2ccnc3[nH]ccc23)c1 [compound 47, 3-(1H-Pyrrolo[2,3-b]pyridin-4-yl)-benzoic acid]	–	–	–	500 to 5000	500 to 5000	500 to 5000
CCCCN(CC#N)C(=O)c1ccc(-c2ccnc3[nH]ccc23)s1 [compound 317]	< 500	< 500	< 500	–	–	–
